These compounds were tested on rat aortic vascular smooth muscle cells (assay: PDGF-induced migration of rat aortic vascular smooth muscle cells (modified Boyden chamber, Transwell)). Conditions: PDGF as chemoattractant, without inhibitor.
Assay type: cell-based
Method: The procedure for assessing vascular smooth muscle cell migration was described previously in Hidaka, Y., Eda, T., Yonemoto, M. & Kamei, T. (1992) Atheroscler. 95, 87-94. Briefly, rat aortic vascular smooth muscle cells (passage 3) were suspended (1×10^6 cells/ml) in serum free DMEM supplemented with 0.2% (w/v) bovine serum albumin (Sigma). Migration assays were performed in modified Boyden chambers using Transwell (Costar, Cambridge, Mass.) cell culture chambers with a polycarbonate 8μm pore size membrane. PDGF was dissolved in DMEM and placed in the lower compartment in the presence, or absence, of compounds of Formula (I) wherein R1, R2, R3, R5, R6 or R8 are independently OH. Vascular smooth muscle cells (5×10^5) were then loaded in the upper compartment and incubated for 24 h at 37° C. in a humidified atmosphere containing 5% CO2. Non-migrated cells on the upper surface were scraped away gently and washed three times with PBS. Filters were fixed in methanol and stained with Giemsa. The number of vascular smooth muscle cells per 100×high power field (HPF) that had migrated to the lower surface of the filters was determined microscopically. Four HPFs were counted per filter. Experiments were performed either in duplicate or triplicate.
PDGF produced concentration-dependent increases in the migration of rat vascular smooth muscle cells with maximal effect obtained at a concentration of 1 nM. […] IC50 values for compounds of Formula (I) wherein R1, R2, R3, R5, R6 or R8 are independently OH were as follows.
PDGF was tested, and the “concentration of maximal effect on migration” value was 1 nM.

Same assay, conditions: Rattus norvegicus; PDGF-induced migration; 24 h at 37° C; by position of OH group
With `COc1cc(O)ccc1OCCNCC(O)COc1cccc2[nH]c3ccccc3c12` (stereo not shown) [R1] the IC50 was 0.99 µM. In the case of `COc1ccc(O)cc1OCCNCC(O)COc1cccc2[nH]c3ccccc3c12` (stereo not shown) [R2], the IC50 is reported as 0.41 µM. For `COc1ccccc1OCCNCC(O)COc1c(O)ccc2[nH]c3ccccc3c12` (stereo not shown) [R3], the IC50 was 0.2 µM. Compound `COc1ccccc1OCCNCC(O)COc1ccc(O)c2[nH]c3ccccc3c12` (stereo not shown) [R5] has an IC50 of 0.18 µM. `COc1ccccc1OCCNCC(O)COc1cccc2[nH]c3c(O)cccc3c12` (stereo not shown) [R6] showed an IC50 of 1.72 µM. With `COc1ccccc1OCCNCC(O)COc1cccc2[nH]c3ccc(O)cc3c12` (stereo not shown) [R8] the IC50 was 0.36 µM.
